Measured values as given in PubChem BioAssay (NCI).
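Where inhibition never reached the appropriate level, the endpoint shown equals the highest concentration tested. Otherwise, values were interpolated linearly from a five-concentration, 48-hour dose response in 96-well plates. The concentration for 50% growth inhibition is given as GI50. TGI denotes the concentration required for complete inhibition of growth.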

Legend:
Test in all cases: inhibition of tumour cell growth, NCI panel, 48 h; in the data active = GI50 below about 0.43 µM; inactive = the rest
CAKI-1 renal = test system: CAKI-1 renal
A549 NSCLC = test system: A549 NSCLC
T-47D breast = test system: T-47D breast
MCF7 breast = test system: MCF7 breast
PC-3 prostate = test system: PC-3 prostate
SK-MEL-28 melanoma = test system: SK-MEL-28 melanoma
DU-145 prostate = test system: DU-145 prostate
HCT-116 colon = test system: HCT-116 colon
SN12C renal = test system: SN12C renal
SK-MEL-2 melanoma = test system: SK-MEL-2 melanoma
RPMI-8226 leukemia = test system: RPMI-8226 leukemia
MDA-MB-435 = test system: MDA-MB-435
SR leukemia = test system: SR leukemia
U251 CNS = test system: U251 CNS
HL-60(TB) leukemia = test system: HL-60(TB) leukemia
EKVX NSCLC = test system: EKVX NSCLC
A498 renal = test system: A498 renal
OVCAR-4 ovarian = test system: OVCAR-4 ovarian
ACHN renal = test system: ACHN renal
HCC-2998 colon = test system: HCC-2998 colon
LOX IMVI melanoma = test system: LOX IMVI melanoma
IGROV1 ovarian = test system: IGROV1 ovarian
NCI-H460 lung = test system: NCI-H460 lung
M14 melanoma = test system: M14 melanoma
NCI/ADR-RES ovarian = test system: NCI/ADR-RES ovarian
SF-268 CNS = test system: SF-268 CNS
K-562 leukemia = test system: K-562 leukemia
SF-539 CNS = test system: SF-539 CNS
COLO 205 colon = test system: COLO 205 colon
MALME-3M melanoma = test system: MALME-3M melanoma
SK-MEL-5 melanoma = test system: SK-MEL-5 melanoma
786-0 renal = test system: 786-0 renal
SNB-19 CNS = test system: SNB-19 CNS
OVCAR-3 ovarian = test system: OVCAR-3 ovarian
MDA-MB-231 breast = test system: MDA-MB-231 breast
RXF 393 renal = test system: RXF 393 renal
SF-295 CNS = test system: SF-295 CNS
HS 578T breast = test system: HS 578T breast
UO-31 renal = test system: UO-31 renal
BT-549 breast = test system: BT-549 breast
SK-OV-3 ovarian = test system: SK-OV-3 ovarian
SNB-75 CNS = test system: SNB-75 CNS
HOP-62 NSCLC = test system: HOP-62 NSCLC
OVCAR-8 ovarian = test system: OVCAR-8 ovarian
HT29 colon = test system: HT29 colon
TK-10 renal = test system: TK-10 renal
MOLT-4 leukemia = test system: MOLT-4 leukemia
KM12 colon = test system: KM12 colon
CCRF-CEM leukemia = test system: CCRF-CEM leukemia
HCT-15 colon = test system: HCT-15 colon
NCI-H23 lung = test system: NCI-H23 lung
OVCAR-5 ovarian = test system: OVCAR-5 ovarian
NCI-H226 lung = test system: NCI-H226 lung
UACC-62 melanoma = test system: UACC-62 melanoma
SW-620 colon = test system: SW-620 colon
NCI-H522 lung = test system: NCI-H522 lung
UACC-257 melanoma = test system: UACC-257 melanoma

C#CCOC(=O)/C=C/C(=O)Oc1ccc2c(C)cc(=O)oc2c1
> 100 µM: TGI (CAKI-1 renal) | TGI (A549 NSCLC) | TGI (T-47D breast) | TGI (MCF7 breast) | TGI (PC-3 prostate) | TGI (SK-MEL-28 melanoma) | TGI (DU-145 prostate) | TGI (HCT-116 colon) | TGI (SN12C renal) | TGI (SK-MEL-2 melanoma) | TGI (RPMI-8226 leukemia) | TGI (MDA-MB-435) | TGI (SR leukemia) | TGI (U251 CNS) | TGI (HL-60(TB) leukemia) | TGI (EKVX NSCLC) | TGI (A498 renal) | TGI (OVCAR-4 ovarian) | TGI (ACHN renal) | TGI (HCC-2998 colon) | TGI (LOX IMVI melanoma) | TGI (IGROV1 ovarian) | TGI (NCI-H460 lung) | TGI (M14 melanoma) | TGI (NCI/ADR-RES ovarian) | TGI (SF-268 CNS) | TGI (K-562 leukemia) | TGI (SF-539 CNS) | TGI (COLO 205 colon) | TGI (MALME-3M melanoma) | TGI (SK-MEL-5 melanoma) | TGI (786-0 renal) | TGI (SNB-19 CNS) | TGI (OVCAR-3 ovarian) | TGI (MDA-MB-231 breast) | TGI (RXF 393 renal) | TGI (SF-295 CNS) | TGI (HS 578T breast) | TGI (UO-31 renal) | TGI (BT-549 breast) | TGI (SK-OV-3 ovarian) | TGI (SNB-75 CNS) | TGI (HOP-62 NSCLC) | TGI (OVCAR-8 ovarian) | TGI (HT29 colon) | TGI (TK-10 renal) | TGI (MOLT-4 leukemia) | TGI (KM12 colon) | TGI (CCRF-CEM leukemia) | TGI (HCT-15 colon) | TGI (NCI-H23 lung) | TGI (OVCAR-5 ovarian) | TGI (NCI-H226 lung) | TGI (UACC-62 melanoma) | TGI (SW-620 colon) | TGI (NCI-H522 lung) | TGI (UACC-257 melanoma)
inactive: GI50 (CAKI-1 renal) > 100 µM | GI50 (A549 NSCLC) > 100 µM | GI50 (T-47D breast) > 100 µM | GI50 (MCF7 breast) > 100 µM | GI50 (PC-3 prostate) > 100 µM | GI50 (SK-MEL-28 melanoma) > 100 µM | GI50 (DU-145 prostate) > 100 µM | GI50 (HCT-116 colon) > 100 µM | GI50 (SN12C renal) > 100 µM | GI50 (SK-MEL-2 melanoma) > 100 µM | GI50 (RPMI-8226 leukemia) > 100 µM | GI50 (MDA-MB-435) > 100 µM | GI50 (SR leukemia) > 100 µM | GI50 (U251 CNS) > 100 µM | GI50 (HL-60(TB) leukemia) > 100 µM | GI50 (EKVX NSCLC) > 100 µM | GI50 (A498 renal) > 100 µM | GI50 (OVCAR-4 ovarian) > 100 µM | GI50 (ACHN renal) > 100 µM | GI50 (HCC-2998 colon) 40.8 µM | GI50 (LOX IMVI melanoma) > 100 µM | GI50 (IGROV1 ovarian) > 100 µM | GI50 (NCI-H460 lung) > 100 µM | GI50 (M14 melanoma) > 100 µM | GI50 (NCI/ADR-RES ovarian) > 100 µM | GI50 (SF-268 CNS) > 100 µM | GI50 (K-562 leukemia) > 100 µM | GI50 (SF-539 CNS) > 100 µM | GI50 (COLO 205 colon) > 100 µM | GI50 (MALME-3M melanoma) > 100 µM | GI50 (SK-MEL-5 melanoma) > 100 µM | GI50 (786-0 renal) > 100 µM | GI50 (SNB-19 CNS) > 100 µM | GI50 (OVCAR-3 ovarian) > 100 µM | GI50 (MDA-MB-231 breast) > 100 µM | GI50 (RXF 393 renal) > 100 µM | GI50 (SF-295 CNS) > 100 µM | GI50 (HS 578T breast) > 100 µM | GI50 (UO-31 renal) > 100 µM | GI50 (BT-549 breast) > 100 µM | GI50 (SK-OV-3 ovarian) > 100 µM | GI50 (SNB-75 CNS) > 100 µM | GI50 (HOP-62 NSCLC) > 100 µM | GI50 (OVCAR-8 ovarian) > 100 µM | GI50 (HT29 colon) > 100 µM | GI50 (TK-10 renal) > 100 µM | GI50 (MOLT-4 leukemia) > 100 µM | GI50 (KM12 colon) > 100 µM | GI50 (CCRF-CEM leukemia) > 100 µM | GI50 (HCT-15 colon) > 100 µM | GI50 (NCI-H23 lung) > 100 µM | GI50 (OVCAR-5 ovarian) > 100 µM | GI50 (NCI-H226 lung) > 100 µM | GI50 (UACC-62 melanoma) > 100 µM | GI50 (SW-620 colon) > 100 µM | GI50 (NCI-H522 lung) > 100 µM | GI50 (UACC-257 melanoma) > 100 µM
